What is called IC50 is the concentration needed to halve the response being measured.

Each structure is given as a SMILES string.

Data on 25 compounds can be found in PubChem BioAssay AID488966 (Southern Research Specialized Biocontainment Screening …, 2010).

For this experiment, the system named is E. coli UTI89 K1F phage lysis, alamar blue, 2 h. Nature of the experiment: protection from phage-mediated lysis, alamar blue read-out – E. coli UTI89, K1F phage, bacterial capsule biogenesis inhibitors (AID 488966;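 further: capsule biogenesis inhibitors block K1F phage lysis so surviving cells raise fluorescence; higher fluorescence means more inhibition of phage lysis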). (In general: Resazurin is reduced to fluorescent resorufin, in cell work by metabolically active cells.)

As for `CC1(C(=O)O)CCC(C(=O)Nc2ccc3ccccc3c2)C1(C)C` (stereo not given), the IC50 was 178 µM. Take `CCC1=NN2C(=N)/C(=C\c3ccc(SCc4ccco4)o3)C(=O)N=C2S1`: the concentration for half-maximal inhibition (IC50) was 68.7 µM. In the case of `O=C(NCc1cc([N+](=O)[O-])ccc1O)c1cccnc1Sc1ccccc1`, the IC50 was 128 µM.

Regarding `O=C(COc1ccc(Cl)cc1Cl)Nc1ccc(C(=O)Nc2ccccc2C(=O)O)cc1`, the IC50 was 74.6 µM. `CCN(CCCl)c1cc(CN(C)C)cc(NC(=O)c2ccc(C(=O)Nc3cc(CN(C)C)cc(N(CC)CCCl)c3)cc2)c1`: the IC50 was 118 µM.

On to `O=C1c2c(O)ccc(O)c2C(=O)c2c(NCCNCCO)ccc(NCCNCCO)c21`, for which the IC50 is 211 µM. Regarding `N=C(N)SCCc1cccc(CCSC(=N)N)c1`, the IC50 is 114 µM. Next, `Cc1cccc(C)c1NC(=O)C[N+](C)(C)CC(O)COc1cccc2ccccc12` (stereo not given): 91 µM; `O=C(NCc1cc([N+](=O)[O-])ccc1O)c1cccnc1Sc1ccccc1Cl`: 175 µM. Turning to `O=C(Nc1cccc(C2=NCCN2)c1)Nc1cccc(C2=NCCN2)c1`, the IC50 is 251 µM. Next, `COc1ccc2nc(NC(=O)c3ccc(Br)s3)sc2c1`: 59.7 µM. Take `O=C1C2(Cl)C3(Cl)C4(Cl)C(Cl)(Cl)C5(Cl)C3(Cl)C1(Cl)C5(Cl)C24Cl` (stereo not given): the IC50 was 74.8 µM. As for `CCCOc1ccc(C(=O)C(CCC(CNCC)C(=O)c2ccc(OCCC)cc2)CNCC)cc1` (stereo not given), the IC50 was 132 µM. Next, `NC(N)=N/N=C/c1ccc(OCc2ccccc2)cc1`: 60.8 µM; `Cc1cc(C)c(NC(=O)C[N+](C)(C)CC(O)COc2cccc3ccccc23)c(C)c1` (stereo not given): 82.2 µM; `Cc1ccccc1NC(=NCCCN1CC1)Nc1ccccc1C`: 286 µM. Regarding `CCN(CC)c1ccc2c(-c3ccc(S(=O)(=O)O)cc3S(=O)(=O)[O-])c3ccc(=[N+](CC)CC)cc-3oc2c1`, the IC50 was 30.6 µM.

On to `Cc1ccc(C2c3c(oc4cc(C)c(C)cc4c3=O)C(=O)N2CCCN2CCOCC2)cc1` (stereo not given), for which the IC50 is 228 µM. On to `C=CCOc1ccc(C2c3c(oc4ccccc4c3=O)C(=O)N2CCCN2CCOCC2)cc1` (stereo not given), for which the IC50 was 200 µM. For the compound `O=C(ONc1ccc(N=NC(=O)c2ccccc2O)cc1)c1ccccc1`, the IC50 is 72.7 µM. In the case of `N=c1n(CCN2CCCC2)c2ccccc2n1CC(O)c1ccc(Cl)c(Cl)c1` (stereo not given), the IC50 was 140 µM.

As to `COc1cc(/C=N/N=C(N)N)ccc1OCc1ccccc1Cl`, the IC50 was 56.4 µM. Consider `N=C(N)c1ccc(/C=C/c2ccc(C(=N)N)cc2O)cc1`, for which the IC50 was 11.1 µM. `CCN(CC)CCCNc1nc2ccccc2c2[nH]c3ccc(OC)cc3c12`: the 50% inhibitory concentration (IC50) was 86.6 µM.

As for `O=C(Nc1ccncc1)c1ccc2ncsc2c1`, the concentration for half-maximal inhibition (IC50) is 123 µM.
